Results as given in ChEMBL document CHEMBL5055650, “4-Acyl Pyrrole Capped HDAC Inhibitors: A New Scaffold for Hybrid Inhibitors of BET Proteins and Histone Deacetylases as Antileukemia Drug Leads” (J Med Chem, 2021).
Activity calls are given as the source filed them. The rule behind the calls is not given here.

How the values were obtained:
HAL-01 = experiment: Anticancer activity against human HAL-01 cells assessed as cell growth inhibition by CellTiter-Glo luminescent assay; assay type: functional, cell-based
HPBALL [1] = experiment: Anticancer activity against human HPBALL cells assessed as cell growth inhibition by CellTiter-Glo luminescent assay; assay type: functional, cell-based
K562 [2] = experiment: Anticancer activity against human K562 cells assessed as cell growth inhibition by CellTiter-Glo luminescent assay; assay type: functional, cell-based
TALL-1 [3] = experiment: Anticancer activity against human TALL-1 cells assessed as cell growth inhibition by CellTiter-Glo luminescent assay; assay type: functional, cell-based
HL-60 [4] = experiment: Anticancer activity against human HL-60 cells assessed as cell growth inhibition by CellTiter-Glo luminescent assay; assay type: functional, cell-based
K562 [5] = experiment: Induction of apoptosis in human K562 cells assessed as increase cleaved PARP expression measured after 24 to 72 hrs by Western blot analysis; assay type: functional, cell-based; conditions: time 24-72 hrs
K562 [6] = experiment: Induction of apoptosis in human K562 cells assessed as apoptosis at 6 uM after 24 to 72 hrs using annexin V/PI followed by flow cytometry; assay type: functional, cell-based; conditions: time 24-72 hrs
REH = experiment: Anticancer activity against human REH cells assessed as cell growth inhibition by CellTiter-Glo luminescent assay; assay type: functional, cell-based
HPBALL [7] = experiment: Anticancer activity against human HPBALL cells assessed as reduction in total number of colony forming units at 5 uM measured after 24 hrs by colony formation assay; assay type: functional, cell-based
HPBALL [8] = experiment: Anticancer activity against human HPBALL cells assessed as reduction in size of colony at 5 uM measured after 24 hrs by colony formation assay; assay type: functional, cell-based
HL-60 [9] = experiment: Cytotoxicity against human HL-60 cells assessed as cell viability at 5 uM by CellTiter-Glo luminescent assay; assay type: functional; conditions: read-out: Activity
TALL-1 [10] = experiment: Cytotoxicity against human TALL-1 cells assessed as cell viability at 5 uM by CellTiter-Glo luminescent assay; assay type: functional; conditions: read-out: Activity
MOLT-4 = experiment: Cytotoxicity against human MOLT-4 cells assessed as cell viability at 5 uM by CellTiter-Glo luminescent assay; assay type: functional; conditions: read-out: Activity
[11] = molecular target: T1, Protein deacetylase HDAC6 (Homo sapiens, UniProt Q9UBN7); experiment: Inhibition of human recombinant HDAC6 assessed as fluorescence using fluorogenic substrate ZMAL incubated for 90 min by microplate reader
T1 sequence (Q9UBN7 whole entry): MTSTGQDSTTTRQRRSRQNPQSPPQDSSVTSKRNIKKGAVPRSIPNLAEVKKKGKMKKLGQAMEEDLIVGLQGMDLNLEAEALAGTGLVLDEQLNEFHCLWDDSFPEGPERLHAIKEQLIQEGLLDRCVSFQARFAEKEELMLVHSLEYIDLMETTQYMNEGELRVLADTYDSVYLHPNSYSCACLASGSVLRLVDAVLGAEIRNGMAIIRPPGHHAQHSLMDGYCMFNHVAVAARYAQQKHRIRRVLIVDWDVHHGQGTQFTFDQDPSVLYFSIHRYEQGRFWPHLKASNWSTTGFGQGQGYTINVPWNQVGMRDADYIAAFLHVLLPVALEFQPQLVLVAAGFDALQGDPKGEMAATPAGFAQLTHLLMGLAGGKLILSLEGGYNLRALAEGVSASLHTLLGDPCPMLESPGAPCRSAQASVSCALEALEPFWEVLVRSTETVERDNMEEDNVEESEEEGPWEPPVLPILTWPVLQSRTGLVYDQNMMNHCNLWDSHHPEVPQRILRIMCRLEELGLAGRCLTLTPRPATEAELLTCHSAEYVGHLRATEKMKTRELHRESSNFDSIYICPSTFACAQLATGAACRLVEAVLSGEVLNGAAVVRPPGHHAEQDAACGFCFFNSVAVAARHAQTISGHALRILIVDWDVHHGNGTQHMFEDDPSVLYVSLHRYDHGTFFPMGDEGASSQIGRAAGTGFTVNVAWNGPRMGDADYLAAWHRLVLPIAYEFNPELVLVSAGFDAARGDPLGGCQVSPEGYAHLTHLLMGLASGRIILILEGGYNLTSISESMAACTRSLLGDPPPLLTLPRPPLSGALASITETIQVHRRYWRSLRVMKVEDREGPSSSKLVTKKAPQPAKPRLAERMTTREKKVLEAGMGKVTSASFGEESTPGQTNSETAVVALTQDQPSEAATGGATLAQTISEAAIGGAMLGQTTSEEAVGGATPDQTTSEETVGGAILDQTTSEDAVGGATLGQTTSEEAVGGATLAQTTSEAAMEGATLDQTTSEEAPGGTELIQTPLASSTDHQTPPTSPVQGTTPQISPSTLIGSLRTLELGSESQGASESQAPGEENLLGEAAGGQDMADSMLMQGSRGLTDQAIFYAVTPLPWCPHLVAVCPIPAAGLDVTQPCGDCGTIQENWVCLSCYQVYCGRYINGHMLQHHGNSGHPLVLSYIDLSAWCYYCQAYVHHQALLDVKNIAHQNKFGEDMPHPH

Histone deacetylase 1 = Histone deacetylase 1 (Homo sapiens, UniProt Q13547); experiment: Inhibition of human recombinant HDAC1 assessed as fluorescence using fluorogenic substrate ZMAL incubated for 90 min by microplate reader
[12] = molecular target: Bromodomain-containing protein 4 (Homo sapiens, UniProt O60885); experiment: Binding affinity to human BRD4 domain 1 (unknown origin) assessed as dissociation constant by isothermal titration calorimetry assay
[13] = molecular target: T2, Bromodomain-containing protein 3 (Homo sapiens, UniProt Q15059); experiment: Binding affinity to human BRD3 domain 2 assessed as dissociation constant by isothermal titration calorimetry assay
[14] = molecular target: T3, Bromodomain-containing protein 2 (Homo sapiens, UniProt P25440); experiment: Binding affinity to human BRD2 domain 2 assessed as dissociation constant by isothermal titration calorimetry assay
[15] = molecular target: T3, Bromodomain-containing protein 2; experiment: Binding affinity to human BRD2 domain 1 assessed as dissociation constant by isothermal titration calorimetry assay
[16] = molecular target: T2, Bromodomain-containing protein 3; experiment: Binding affinity to human BRD3 domain 1 assessed as dissociation constant by isothermal titration calorimetry assay
Histone deacetylase 2 = Histone deacetylase 2 (Homo sapiens, UniProt Q92769); experiment: Inhibition of human HDAC2 assessed as target activity using fluorogenic substrate ZMAL for 90 min by microplate reader at 355nm
[17] = molecular target: T4, Histone deacetylase (Homo sapiens) (UniProt Q13547+O15379+Q9UBN7+Q92769+Q9UQL6+Q8WUI4+Q9BY41+Q96DB2+P56524+Q9UKV0+Q969S8); experiment: Inhibition of HDAC in human K562 cells assessed as decrease in MYC expression measured after 24 to 72 hrs by Western blot analysis; assay type: cell-based; conditions: time 24-72 hrs
[18] = molecular target: T5, Bromodomain-containing protein 7 (Homo sapiens, UniProt Q9NPI1); experiment: Binding affinity to human BRD7 assessed as dissociation constant by isothermal titration calorimetry assay
T5 sequence (Q9NPI1 whole entry): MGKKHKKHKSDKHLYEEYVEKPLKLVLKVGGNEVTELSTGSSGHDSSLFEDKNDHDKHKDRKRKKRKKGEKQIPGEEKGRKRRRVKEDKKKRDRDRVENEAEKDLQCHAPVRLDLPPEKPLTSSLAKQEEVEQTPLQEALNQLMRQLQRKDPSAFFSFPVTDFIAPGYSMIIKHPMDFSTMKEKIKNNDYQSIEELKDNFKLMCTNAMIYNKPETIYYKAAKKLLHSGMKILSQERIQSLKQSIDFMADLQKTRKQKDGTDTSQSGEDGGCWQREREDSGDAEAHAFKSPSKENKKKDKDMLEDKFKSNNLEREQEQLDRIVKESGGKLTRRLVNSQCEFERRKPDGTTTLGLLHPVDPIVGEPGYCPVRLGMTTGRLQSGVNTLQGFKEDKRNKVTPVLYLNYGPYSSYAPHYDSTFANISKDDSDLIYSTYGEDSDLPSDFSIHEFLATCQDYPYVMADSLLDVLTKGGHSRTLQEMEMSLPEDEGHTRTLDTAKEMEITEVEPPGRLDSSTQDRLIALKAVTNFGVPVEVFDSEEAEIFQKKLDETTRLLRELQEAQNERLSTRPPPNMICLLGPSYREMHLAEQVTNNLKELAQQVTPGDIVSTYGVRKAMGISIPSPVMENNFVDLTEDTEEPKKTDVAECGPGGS

[19] = molecular target: T4, Histone deacetylase (Homo sapiens); experiment: Inhibition of HDAC in human K562 cells assessed as increase in acetylated histone H3 measured after 48 hrs by Western blot analysis; assay type: cell-based
Histone deacetylase 3 = Histone deacetylase 3 (Homo sapiens, UniProt O15379); experiment: Inhibition of human HDAC3 assessed as target activity using fluorogenic substrate ZMAL for 90 min by microplate reader at 355nm
[20] = molecular target: T4, Histone deacetylase (Homo sapiens); experiment: Inhibition of HDAC in human K562 cells assessed as increase in acetylated alpha-tubulin measured after 48 hrs by Western blot analysis; assay type: cell-based

Sequence of Histone deacetylase 1 (Q13547 whole entry, the tested form may be a part): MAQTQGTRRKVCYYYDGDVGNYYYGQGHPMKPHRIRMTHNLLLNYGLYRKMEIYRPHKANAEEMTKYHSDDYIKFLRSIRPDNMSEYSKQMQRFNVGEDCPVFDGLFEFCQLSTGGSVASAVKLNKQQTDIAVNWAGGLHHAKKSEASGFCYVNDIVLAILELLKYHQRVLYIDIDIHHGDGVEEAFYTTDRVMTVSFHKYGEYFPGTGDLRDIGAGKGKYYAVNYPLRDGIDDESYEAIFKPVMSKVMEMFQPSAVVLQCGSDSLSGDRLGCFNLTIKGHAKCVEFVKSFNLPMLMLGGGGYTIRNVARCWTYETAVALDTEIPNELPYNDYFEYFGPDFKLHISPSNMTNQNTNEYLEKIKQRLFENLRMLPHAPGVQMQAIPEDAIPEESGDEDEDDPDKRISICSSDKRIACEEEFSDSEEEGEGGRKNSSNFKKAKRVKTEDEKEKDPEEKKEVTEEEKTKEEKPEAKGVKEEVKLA
T2 sequence (Q15059 whole entry, the tested form may be a part): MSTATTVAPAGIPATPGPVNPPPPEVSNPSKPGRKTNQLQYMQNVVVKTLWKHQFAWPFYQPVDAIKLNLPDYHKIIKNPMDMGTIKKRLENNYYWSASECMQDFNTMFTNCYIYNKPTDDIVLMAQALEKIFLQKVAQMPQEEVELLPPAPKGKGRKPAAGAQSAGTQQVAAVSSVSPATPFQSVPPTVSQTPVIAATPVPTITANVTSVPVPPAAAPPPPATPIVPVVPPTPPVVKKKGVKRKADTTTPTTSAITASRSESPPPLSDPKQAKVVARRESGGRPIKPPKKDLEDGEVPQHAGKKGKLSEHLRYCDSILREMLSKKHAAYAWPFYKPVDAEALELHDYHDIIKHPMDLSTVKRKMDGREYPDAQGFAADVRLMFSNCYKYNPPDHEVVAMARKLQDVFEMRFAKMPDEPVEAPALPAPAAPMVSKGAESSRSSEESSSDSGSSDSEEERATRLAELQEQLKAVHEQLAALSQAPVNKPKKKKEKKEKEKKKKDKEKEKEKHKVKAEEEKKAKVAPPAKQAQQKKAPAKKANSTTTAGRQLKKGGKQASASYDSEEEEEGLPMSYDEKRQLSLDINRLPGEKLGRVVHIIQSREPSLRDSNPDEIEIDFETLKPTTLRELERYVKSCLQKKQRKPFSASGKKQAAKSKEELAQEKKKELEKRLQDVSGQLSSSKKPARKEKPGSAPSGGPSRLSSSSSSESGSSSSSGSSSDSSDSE
T3 sequence (P25440 whole entry, the tested form may be a part): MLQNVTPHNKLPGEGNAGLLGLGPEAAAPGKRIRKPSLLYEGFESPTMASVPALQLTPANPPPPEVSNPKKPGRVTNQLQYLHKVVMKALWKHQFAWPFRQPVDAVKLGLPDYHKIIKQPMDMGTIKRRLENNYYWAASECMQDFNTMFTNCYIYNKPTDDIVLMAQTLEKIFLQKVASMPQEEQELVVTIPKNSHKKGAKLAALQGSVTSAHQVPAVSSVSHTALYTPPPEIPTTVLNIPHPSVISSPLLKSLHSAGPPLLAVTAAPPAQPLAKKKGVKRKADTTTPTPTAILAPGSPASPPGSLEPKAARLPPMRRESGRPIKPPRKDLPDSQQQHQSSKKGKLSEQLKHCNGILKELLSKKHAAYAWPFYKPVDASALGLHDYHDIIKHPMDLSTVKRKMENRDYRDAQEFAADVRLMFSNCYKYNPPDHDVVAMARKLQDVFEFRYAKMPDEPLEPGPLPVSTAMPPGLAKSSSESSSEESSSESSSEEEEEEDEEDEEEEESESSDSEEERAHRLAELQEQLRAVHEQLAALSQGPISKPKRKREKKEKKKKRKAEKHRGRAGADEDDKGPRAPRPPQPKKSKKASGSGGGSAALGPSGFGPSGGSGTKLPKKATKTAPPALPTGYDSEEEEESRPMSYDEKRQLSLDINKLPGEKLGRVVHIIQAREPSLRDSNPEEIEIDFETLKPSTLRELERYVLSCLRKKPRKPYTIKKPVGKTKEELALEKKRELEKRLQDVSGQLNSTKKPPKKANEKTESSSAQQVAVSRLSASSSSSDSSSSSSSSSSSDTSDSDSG
Sequence of Histone deacetylase 2 (Q92769 whole entry): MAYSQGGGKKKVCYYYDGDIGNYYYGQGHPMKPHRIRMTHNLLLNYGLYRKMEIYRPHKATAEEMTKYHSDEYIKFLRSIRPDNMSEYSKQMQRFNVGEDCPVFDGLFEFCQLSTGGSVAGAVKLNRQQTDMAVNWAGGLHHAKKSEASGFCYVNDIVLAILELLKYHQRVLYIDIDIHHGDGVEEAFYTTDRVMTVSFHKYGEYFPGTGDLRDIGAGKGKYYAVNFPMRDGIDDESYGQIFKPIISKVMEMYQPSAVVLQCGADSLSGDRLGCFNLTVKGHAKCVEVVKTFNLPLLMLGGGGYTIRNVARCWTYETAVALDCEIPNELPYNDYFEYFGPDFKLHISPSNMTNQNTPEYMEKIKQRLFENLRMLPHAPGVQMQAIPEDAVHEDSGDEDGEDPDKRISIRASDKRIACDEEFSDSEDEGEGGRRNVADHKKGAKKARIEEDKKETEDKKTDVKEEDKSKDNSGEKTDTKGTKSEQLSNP
Sequence of Histone deacetylase 3 (O15379 whole entry): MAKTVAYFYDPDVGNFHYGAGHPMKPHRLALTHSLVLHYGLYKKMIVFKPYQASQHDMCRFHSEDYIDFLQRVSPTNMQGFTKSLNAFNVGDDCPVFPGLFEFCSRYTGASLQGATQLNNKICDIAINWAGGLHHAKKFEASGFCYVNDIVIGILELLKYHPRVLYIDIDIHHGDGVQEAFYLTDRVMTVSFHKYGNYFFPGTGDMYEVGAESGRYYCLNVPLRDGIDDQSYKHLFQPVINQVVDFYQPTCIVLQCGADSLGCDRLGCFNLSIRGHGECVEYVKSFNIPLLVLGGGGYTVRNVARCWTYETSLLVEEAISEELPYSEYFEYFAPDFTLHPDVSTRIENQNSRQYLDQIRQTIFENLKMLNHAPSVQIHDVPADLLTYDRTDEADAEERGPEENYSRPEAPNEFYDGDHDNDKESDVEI

Row | Structure (SMILES) | viability at 5 µM (HL-60 [9]) | viability at 5 µM (TALL-1 [10]) | viability at 5 µM (MOLT-4) | IC50 [11] | IC50 (Histone deacetylase 1) | Kd ([12]; read-out: Kd) | other results
1 | O=C(CCCCCCNC(=O)c1cnc(N(c2ccccc2)c2ccccc2)nc1)NO [RICOLINOSTAT] |  |  |  |  |  |  | IC50 (HAL-01): > 25000 nM; IC50 (HPBALL [1]): 6700 nM; IC50 (K562 [2]): 6020 nM; IC50 (TALL-1 [3]): 3880 nM; IC50 (HL-60 [4]): 10400 nM; Activity (K562 [5]): Active; Activity (K562 [6]): Active; IC50 (REH): > 25000 nM
2 | Cc1c2c(c(C(=O)Nc3cc(S(=O)(=O)N4CCOCC4)ccc3OCCCCCCCC(=O)NO)n1C)CCCCC2=O | 80.8% | 82.3% | 115% | 320 nM | 330 nM |  | Activity (HPBALL [7]): Active; Activity (HPBALL [8]): Active
3 | Cn1cccc1C(=O)Nc1cccc(CCC(=O)NO)c1 |  |  |  | 620 nM | 1280 nM |  | Kd [12]: Not Active
4 | CCc1c(C(=O)Nc2cccc(CCC(=O)NO)c2)[nH]c(C)c1C(C)=O |  |  |  | 658 nM | 900 nM | 11500 nM | 
5 | CCc1c(C(=O)Nc2cc(S(=O)(=O)Nc3cccc(/C=C/C(=O)NO)c3)ccc2OC)[nH]c(C)c1C(C)=O | 98.7% | 85.6% | 106% | 73 nM | 97 nM | 3670 nM | 
6 | Cc1sc2c(c1C)C(c1ccc(Cl)cc1)=N[C@@H](CC(=O)Nc1ccc(O)cc1)c1nnc(C)n1-2 [BIRABRESIB] |  |  |  |  |  |  | IC50 (HAL-01): 2530 nM; IC50 (HPBALL [1]): 7010 nM; IC50 (K562 [2]): 2840 nM; IC50 (TALL-1 [3]): 1350 nM; IC50 (HL-60 [4]): 820 nM; IC50 (REH): 15300 nM
7 | CCc1c(C(=O)Nc2cc(/C=C/C(=O)NO)ccc2O)[nH]c(C)c1C(C)=O | 88.2% | 87.6% | 105% | 80 nM | 142 nM | 2660 nM | 
8 | CCc1c(C(=O)Nc2cccc(CCC(=O)OC)c2)[nH]c(C)c1C(C)=O |  |  |  | > 33300 nM | > 33300 nM | 8260 nM | 
9 | CCc1c(C(=O)Nc2cc(S(=O)(=O)N(CC)CC)ccc2O)[nH]c(C)c1C(C)=O |  |  |  |  |  |  | Kd [13]: 490 nM; Kd [14]: 830 nM; Kd [15]: 170 nM; Kd [16]: 380 nM
10 | CCc1c(C(=O)Nc2cccc(/C=C/C(=O)NO)c2)[nH]c(C)c1C(C)=O |  |  |  | 45 nM | 125 nM | 4500 nM | IC50 (HAL-01): > 25000 nM; Kd [13]: > 10000 nM; IC50 (HPBALL [1]): > 25000 nM; Kd [14]: > 10000 nM; IC50 (K562 [2]): 7380 nM; IC50 (TALL-1 [3]): 5160 nM; IC50 (Histone deacetylase 2): 168 nM; Activity [17]: Active; IC50 (HL-60 [4]): > 25000 nM; Kd [15]: 7700 nM; IC50 (REH): > 25000 nM; Kd [18]: > 10000 nM; Activity [19]: Active; IC50 (Histone deacetylase 3): 149 nM; Kd [16]: > 10000 nM; inhibition [20]: Active
11 | CCc1c(C(=O)Nc2cccc(CCC(=O)Nc3ccccc3N)c2)[nH]c(C)c1C(C)=O |  |  |  | > 100000 nM | 28200 nM | 6920 nM | 
12 | COC(=O)CCCCCCCOc1ccc(S(=O)(=O)N2CCOCC2)cc1NC(=O)c1c2c(c(C)n1C)C(=O)CCCC2 | 104% | 70.3% | 68.6% | > 10000 nM | > 10000 nM | 34 nM | 
